In ChEMBL document CHEMBL1152639, “Design, synthesis and nootropic activity of new analogues of sunifiram and sapunifiram, two potent cognition-enhancers” (Bioorg Med Chem, 2009) one finds minimal effective dose, Activity and Ratio data, which are given here for 37 compounds.

Molecules are shown by their SMILES. Active and inactive are the calls of the source. No cut-off for these calls is given here.

Data set [1] deals with Mus musculus. Nature of the data set: Antiamnesic activity against scopolamine-induced amnesia in ip dosed mouse by passive-avoidance test. The class given is functional. The settings on record: read-out: MED.
Data set [2] deals with Mus musculus. Put plainly: Procognitive effect in ip dosed mouse assessed as inhibition of memory deficit by passive-avoidance test. The class given is functional. As to conditions: read-out: MED.
Data set [3] relates to Mus musculus. Nature of the data set: Toxicity in ip dosed mouse assessed as change in gross behavior. The class given is organism-based. As to conditions: in vivo.
Data set [4] deals with Mus musculus. Put plainly: Toxicity in ip dosed mouse assessed as change motor coordination by rota rod test. The class given is organism-based. As to conditions: in vivo.
Data set [5] relates to Mus musculus. Put plainly: Effect on spontaneous motility in ip dosed mouse by hole-board test. The class given is functional, organism-based.
Data set [6] relates to Mus musculus. Nature of the data set: Effect on inspection activity in ip dosed mouse by hole-board test. The data set is classed as functional, organism-based.
In data set [7] the test system is Mus musculus. Nature of the data set: Ratio of MED for drug to MED for piracetam against scopolamine-induced amnesia in ip dosed mouse by passive-avoidance test. The data set is classed as functional.

Consider `CCCS(=O)(=O)N1CCCN(C(=O)CC)C1`, for which the minimal effective dose with Mus musculus [1] is > 10 mg/kg.

As for `CCC(=O)N1CCN(C(=O)Oc2ccccc2)CC1`, the minimal effective dose in the data set with Mus musculus [1] amounted to 10 mg/kg.

For the compound `CCCS(=O)(=O)N1CCN(C(C)=O)C1`, the minimal effective dose with Mus musculus [1] amounted to 10 mg/kg.

For `CCC(=O)N1CCN(C(=O)c2ccccc2)C1`, the minimal effective dose in the data set on Mus musculus [1] worked out at 1 mg/kg.

As for `CC(=O)NC1CCN(S(=O)(=O)c2ccc(F)cc2)CC1` [SAPUNIFIRAM], the minimal effective dose in the data set with Mus musculus [1] came out at 0.01 mg/kg; with Mus musculus [2], 0.1 mg/kg. Also, the Activity result in the data set with Mus musculus [3] and with Mus musculus [4] was “Non-toxic” in each case. Besides, the result with Mus musculus [5] and with Mus musculus [6] was inactive.

Turning to `CCC(=O)N1CCN(C(C)=O)CC1`, the minimal effective dose in the data set with Mus musculus [1] was determined as 10 mg/kg.

For `CCC(=O)N1CCC(NC(C)=O)CC1`, in the data set on Mus musculus [1], the minimal effective dose was > 10 mg/kg.

Regarding `CCCS(=O)(=O)N1CCN(C(C)=O)CC1`, the minimal effective dose in the data set on Mus musculus [1] turned out to be 0.1 mg/kg. Besides, in the data set with Mus musculus [7], the Ratio stood at 30.

Take `CCC(=O)N1CCN(C(=O)Cc2ccccc2)CC1`: the minimal effective dose with Mus musculus [1] was determined as 1 mg/kg.

`CC(=O)N1CCN(S(=O)(=O)c2ccc(F)cc2)CC1`: the minimal effective dose with Mus musculus [1] was 0.01 mg/kg. Further, the Ratio with Mus musculus [7] was 30.

For the compound `CCCS(=O)(=O)N1CCCN(C(C)=O)CC1`, the minimal effective dose in the data set with Mus musculus [1] was > 10 mg/kg. In addition, in the data set with Mus musculus [7], the Ratio is listed as 30.

As to `CNC(=O)C1CCN(S(=O)(=O)c2ccc(F)cc2)CC1`, the minimal effective dose in the data set on Mus musculus [1] worked out at 0.1 mg/kg; with Mus musculus [2], 1 mg/kg.

`CC(=O)N1CCN(C(=O)c2ccccc2)C1`: the minimal effective dose in the data set on Mus musculus [1] worked out at 1 mg/kg.

Regarding `CC(=O)NC(=O)C1CCN(S(=O)(=O)c2ccc(F)cc2)CC1`, the minimal effective dose in the data set with Mus musculus [1] worked out at 1 mg/kg.

On to `CCCS(=O)(=O)N1CCN(C(=O)CC)CC1`, for which the minimal effective dose in the data set with Mus musculus [1] stood at 1 mg/kg. Besides, the Ratio in the data set with Mus musculus [7] is 30.

For the compound `CCC(=O)N1CCCN(S(=O)(=O)c2ccc(F)cc2)CC1`, the minimal effective dose in the data set on Mus musculus [1] is 1 mg/kg; with Mus musculus [2] it was 10 mg/kg. Also, the Ratio with Mus musculus [7] is reported as 30.

With `CCC(=O)N1CCCN(S(=O)(=O)c2ccc(F)cc2)C1`, the minimal effective dose with Mus musculus [1] was found to be 1 mg/kg.

With `CCC(=O)N1CCN(S(=O)(=O)c2ccc(F)cc2)CC1`, in the data set on Mus musculus [1], the minimal effective dose was determined as 0.01 mg/kg. The Ratio in the data set with Mus musculus [7] came out at 30.

For `CCC(=O)N1CCCN(C(=O)c2ccccc2)C1`, in the data set on Mus musculus [1], the minimal effective dose is 1 mg/kg.

As to `CC(=O)N1CCCN(S(=O)(=O)c2ccc(F)cc2)C1`, the minimal effective dose in the data set with Mus musculus [1] worked out at 1 mg/kg.

As to `CCC(=O)N1CCN(C(=O)CC)CC1`, the minimal effective dose with Mus musculus [1] is > 10 mg/kg.

For the compound `NC(=O)CN1CCCC1=O` [PIRACETAM], in the data set with Mus musculus [1], the minimal effective dose was 30 mg/kg. Moreover, the Activity entry with Mus musculus [3] and in the data set with Mus musculus [4] was “Non-toxic” throughout. Besides, the result with Mus musculus [5] and in the data set with Mus musculus [6] was inactive.

Turning to `CC(=O)N1CCCN(S(=O)(=O)c2ccc(F)cc2)CC1`, the results for the minimal effective dose in the data set with Mus musculus [1] and with Mus musculus [2] were 1 mg/kg and 10 mg/kg, respectively. For the same compound, the Ratio in the data set with Mus musculus [7] stood at 30.

As for `CC(=O)N1CCCN(C(=O)Cc2ccccc2)CC1`, the minimal effective dose in the data set with Mus musculus [1] is 0.01 mg/kg; in the data set with Mus musculus [2], 1 mg/kg. Also, in the data set on Mus musculus [7], the Ratio came to 30.

Take `CCC(=O)N1CCN(C(=O)Nc2ccccc2)CC1`: the minimal effective dose with Mus musculus [1] is > 10 mg/kg.

Take `CC(=O)N1CCN(C(=O)c2ccccc2)CC1`: the minimal effective dose with Mus musculus [1] was found to be 10 mg/kg. Also, in the data set on Mus musculus [7], the Ratio turned out to be 30.

For `CCC(=O)NC1CCN(C(C)=O)CC1`, in the data set on Mus musculus [1], the minimal effective dose was determined as 10 mg/kg.

Consider `CCC(=O)N1CCCN(C(=O)c2ccccc2)CC1`, for which the minimal effective dose in the data set with Mus musculus [1] stood at 0.1 mg/kg; in the data set with Mus musculus [2], 1 mg/kg. Moreover, the Ratio in the data set on Mus musculus [7] came out at 30.

`CCCS(=O)(=O)N1CCN(C(=O)CC)C1`: in the data set with Mus musculus [1], the minimal effective dose is > 10 mg/kg.

Consider `CCC(=O)N1CCN(C(=O)c2ccccc2)CC1` [SUNIFIRAM], for which the minimal effective dose with Mus musculus [1] worked out at 0.001 mg/kg; in the data set on Mus musculus [2] it was 0.01 mg/kg. In the data set with Mus musculus [7], the Ratio was found to be 30. The Activity result in the data set with Mus musculus [3] and in the data set with Mus musculus [4] was “Non-toxic” each time. In addition, the result with Mus musculus [5] and with Mus musculus [6] was inactive.

As for `CC(=O)N1CCN(S(=O)(=O)c2ccc(F)cc2)C1`, the minimal effective dose with Mus musculus [1] is 1 mg/kg.

For `CCC(=O)N1CCN(S(=O)(=O)c2ccc(F)cc2)C1`, in the data set with Mus musculus [1], the minimal effective dose was 1 mg/kg.

As for `CC(=O)N1CCCN(C(=O)c2ccccc2)C1`, in the data set on Mus musculus [1], the minimal effective dose was found to be 1 mg/kg.

Take `CC(=O)N1CCCN(C(=O)c2ccccc2)CC1`: the minimal effective dose amounted to 0.01 mg/kg in the data set with Mus musculus [1] and 1 mg/kg in the data set with Mus musculus [2]. Further, the Ratio in the data set on Mus musculus [7] was found to be 30.

For the compound `CCCS(=O)(=O)N1CCCN(C(C)=O)C1`, the minimal effective dose with Mus musculus [1] amounted to 1 mg/kg.

Consider `CCNC(=O)C1CCN(S(=O)(=O)c2ccc(F)cc2)CC1`, for which the minimal effective dose in the data set with Mus musculus [1] was determined as 1 mg/kg.

Turning to `CCCS(=O)(=O)N1CCCN(C(=O)CC)CC1`, the minimal effective dose with Mus musculus [1] was > 10 mg/kg. Moreover, the Ratio in the data set with Mus musculus [7] was determined as 30.
